For 28 compounds, IC50 results are on record in patent publication US20240217978A1 (CHONG KUN DANG PHARMACEUTICAL CORP., priority 2021, published 2024).

As a reminder, the IC50 is the concentration needed to halve the response being measured. A low value points to higher potency.

This experiment concerns the target human adenosine A2a receptor (Homo sapiens (Human), UniProt P29274). In words: A2a receptor binding affinity, [3H]-NECA radioligand binding test. The settings on record: [3H]-NECA 37 nM; membrane from HEK-293 cells transfected with human adenosine A2a receptor. In a few lines:
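Membranes from HEK-293 cells expressing human A2a receptor were incubated with [3H]-NECA (final 37 nM) and compound for 1 h at room temperature in 50 mM Tris, 10 mM MgCl2, 1 mM EDTA, pH 7.4. Bound ligand was filtered on PEI-coated plates and counted by scintillation to derive IC50 (μM).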

human adenosine A2a receptor, sequence (P29274 whole entry): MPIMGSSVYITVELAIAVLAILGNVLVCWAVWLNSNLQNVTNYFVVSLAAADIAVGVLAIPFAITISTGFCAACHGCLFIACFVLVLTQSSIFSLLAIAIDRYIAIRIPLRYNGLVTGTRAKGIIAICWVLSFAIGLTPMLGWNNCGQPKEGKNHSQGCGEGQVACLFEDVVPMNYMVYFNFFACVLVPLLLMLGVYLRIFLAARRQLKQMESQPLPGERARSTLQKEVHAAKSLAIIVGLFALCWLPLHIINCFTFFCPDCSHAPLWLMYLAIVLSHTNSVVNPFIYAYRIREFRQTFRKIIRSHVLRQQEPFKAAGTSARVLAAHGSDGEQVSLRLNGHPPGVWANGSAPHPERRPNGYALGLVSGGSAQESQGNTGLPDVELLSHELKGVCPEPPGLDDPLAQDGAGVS

`CC(C)(O)CC(=O)N1CCC(C2CCN(C(=O)[C@@H]3CCN3c3nc(N)n4nc(-c5ccco5)nc4n3)CC2)CC1` [Example 327, (S)-1-(1′-(1-(7-amino-2-(furan-2-yl)-[1,2,4]triazolo[1,5-a][1,3,5]triazin-5-yl)azetidine-2-carbonyl)-[4,4′-bipiperidin]-1-yl)-3-hydroxy-3-methylbutan-1-one] came in with an IC50 of 11 nM.

`CC(C)(F)CN1CCC(C2CCN(C(=O)[C@@H]3CCCN3c3cc4nc(-c5ccco5)nn4c(N)n3)CC2)CC1` [Example 395, (S)-(1-(5-amino-2-(furan-2-yl)-[1,2,4]triazolo[1,5-c]pyrimidin-7-yl)pyrrolidin-2-yl)(1′-(2-fluoro-2-methylpropyl)-[4,4′-bipiperidin]-1-yl)methanone] displayed an IC50 of 18 nM.

`Cc1ccc(-c2nc3nc(N4CCC[C@H]4C(=O)N4CCC(c5ccc(F)cc5F)CC4)nc(N)n3n2)o1` [Example 201, (S)-(1-(7-amino-2-(5-methylfuran-2-yl)-[1,2,4]triazolo[1,5-a][1,3,5]triazin-5-yl)pyrrolidin-2-yl)(4-(2,4-difluorophenyl)piperidin-1-yl) methanone] showed an IC50 of 5 nM.

In the case of `CCC(O)(CC)CN1CCN(C(=O)[C@@H]2CCCN2c2nc(N)n3nc(-c4ccco4)nc3n2)CC1` [Example 42, (S)-(1-(7-amino-2-(furan-2-yl)-[1,2,4]triazolo[1,5-a][1,3,5]triazin-5-yl)pyrrolidin-2-yl)(4-(2-ethyl-2-hydroxybutyl)piperazin-1-yl)methanone], the IC50 worked out at 11 nM.

For the compound `Nc1nc(N[C@H](C(=O)N2CCN(CC(F)(F)F)CC2)C2CCCC2)nc2nc(-c3ccco3)nn12` [Example 217, (S)-2-((7-amino-2-(furan-2-yl)-[1,2,4]triazolo[1,5-a][1,3,5]triazin-5-yl)amino)-2-cyclopentyl-1-(4-(2,2,2-trifluoroethyl)piperazin-1-yl)ethan-1-one], the IC50 was 3 nM.

`Nc1nc(N2CCC[C@@H]2C(=O)N2CCN(Cc3ccc(F)cc3F)CC2)nc2nc(-c3ccco3)nn12` [Example 96, (R)-(1-(7-amino-2-(furan-2-yl)-[1,2,4]triazolo[1,5-a][1,3,5]triazin-5-yl)pyrrolidin-2-yl)(4-(2,4-difluorobenzyl)piperazin-1-yl)methanone] showed an IC50 of 1630 nM.

`Nc1nc(N2CCC[C@H]2C(=O)N2C3CCC2CN(C(=O)Nc2ccccc2)C3)nc2nc(-c3ccco3)nn12` [Example 180, 8-((7-amino-2-(furan-2-yl)-[1,2,4]triazolo[1,5-a][1,3,5]triazin-5-yl)-L-prolyl)-N-phenyl-3,8-diazabicyclo[3.2.1]octane-3-carboxamide] registered an IC50 of 7 nM.

Compound `Nc1nc(N2CCC[C@H]2C(=O)N2CCN(C3CC3)CC2)nc2nc(-c3ccco3)nn12` [Example 139, (S)-(1-(7-amino-2-(furan-2-yl)-[1,2,4]triazolo[1,5-a][1,3,5]triazin-5-yl)pyrrolidin-2-yl)(4-cyclopropylpiperazin-1-yl)methanone] returned a half-inhibitory concentration (IC50) of 28 nM.

In turn, `Cc1ccc(-c2nc3nc(N4CCC[C@H]4C(=O)N4CCN(CC(F)(F)C(F)(F)F)CC4)nc(N)n3n2)o1` [Example 299, (S)-(1-(7-amino-2-(5-methylfuran-2-yl)-[1,2,4]triazolo[1,5-a][1,3,5]triazin-5-yl)pyrrolidin-2-yl)(4-(2,2,3,3,3-pentafluoropropyl)piperazin-1-yl)methanone] returned an IC50 of 9 nM.

`CCC(C)S(=O)(=O)N1CCN(C(=O)[C@@H]2CCCN2c2nc(N)n3nc(-c4ccco4)nc3n2)CC1` (stereo partly drawn) [Example 72, ((S)-1-(7-amino-2-(furan-2-yl)-[1,2,4]triazolo[1,5-a][1,3,5]triazin-5-yl)pyrrolidin-2-yl)(4-(sec-butylsulfonyl)piperazin-1-yl)methanone]: the IC50 amounted to 1 nM.

In turn, `Nc1nc(N2CC[C@H]2C(=O)N2CCC(C3CCN(CC(F)F)CC3)CC2)cc2nc(-c3ccco3)nn12` [Example 378, (S)-(1-(5-amino-2-(furan-2-yl)-[1,2,4]triazolo[1,5-c]pyrimidin-7-yl)azetidin-2-yl)(1′-(2,2-difluoroethyl)-[4,4′-bipiperidin]-1-yl)methanone] returned an IC50 of 0.7 nM.

As for `Nc1nc(N2CCC[C@H]2C(=O)N2CCN(CC(F)(F)C(F)(F)F)CC2)nc2nc(-c3ccco3)nn12` [Example 227, (S)-(1-(7-amino-2-(furan-2-yl)-[1,2,4]triazolo[1,5-a][1,3,5]triazin-5-yl)pyrrolidin-2-yl)(4-(2,2,3,3,3-pentafluoropropyl)piperazin-1-yl)methanone], the IC50 was found to be 9 nM.

For `Nc1nc(N2CCC[C@H]2C(=O)N2CCN(CC(F)F)CC2)nc2sc(-c3ccco3)nc12` [Example 258, (S)-(1-(7-amino-2-(furan-2-yl)thiazolo[5,4-d]pyrimidin-5-yl)pyrrolidin-2-yl)(4-(2,2-difluoroethyl)piperazin-1-yl)methanone], the IC50 came to 8 nM.

Compound `Nc1nc(N[C@@H](CO)C(=O)N2CCN(c3ccccc3)C(=O)C2)nc2nc(-c3ccco3)nn12` [Example 234] gave an IC50 of 12 nM.

`Cc1ccc(-c2nc3nc(N4CCC[C@H]4C(=O)N4CCN(CC(F)(F)F)C[C@H]4C)nc(N)n3n2)o1` [Example 196, ((S)-1-(7-amino-2-(5-methylfuran-2-yl)-[1,2,4]triazolo[1,5-a][1,3,5]triazin-5-yl)pyrrolidin-2-yl)((R)-2-methyl-4-(2,2,2-trifluoroethyl)piperazin-1-yl)methanone] returned an IC50 of 8 nM.

`Nc1nc(N2CCC[C@H]2C(=O)N2CCN(C3CC4CCC3C4)CC2)nc2nc(-c3ccco3)nn12` (stereo partly drawn) [Example 156, ((S)-1-(7-amino-2-(furan-2-yl)-[1,2,4]triazolo[1,5-a][1,3,5]triazin-5-yl)pyrrolidin-2-yl)(4-(bicyclo[2.2.1]heptan-2-yl)piperazin-1-yl)methanone] registered an IC50 of 12 nM.

For the compound `Nc1nc(N2CCC[C@H]2C(=O)N2CCN(CC(F)(F)C(F)F)CC2)nc2oc(-c3ccco3)nc12` [Example 271, (S)-(1-(7-amino-2-(furan-2-yl)oxazolo[5,4-d]pyrimidin-5-yl)pyrrolidin-2-yl)(4-(2,2,3,3-tetrafluoropropyl)piperazin-1-yl)methanone], the IC50 is 10 nM.

Regarding `Nc1nc(N[C@H](C(=O)N2CCN(Cc3ccc(F)cc3F)CC2)c2ccccc2)nc2nc(-c3ccco3)nn12` [Example 14, (S)-2-((7-amino-2-(furan-2-yl)-[1,2,4]triazolo[1,5-a][1,3,5]triazin-5-yl)amino)-1-(4-(2,4-difluorobenzyl)piperazin-1-yl)-2-phenylethan-1-one], the IC50 worked out at 0.368 nM.

On to `Nc1nc(N[C@H](C(=O)N2CCN(c3ncccn3)CC2)C2CCOCC2)nc2nc(-c3ccco3)nn12` [Example 241, (S)-2-((7-amino-2-(furan-2-yl)-[1,2,4]triazolo[1,5-a][1,3,5]triazin-5-yl)amino)-1-(4-(pyrimidin-2-yl)piperazin-1-yl)-2-(tetrahydro-2H-pyran-4-yl)ethan-1-one], for which the IC50 was 1 nM.

`Cc1ccc(-c2nc3nc(N4CC[C@H]4C(=O)N4CCN(Cc5ccc(F)cc5F)CC4)nc(N)n3n2)o1` [Example 208, (S)-(1-(7-amino-2-(5-methylfuran-2-yl)-[1,2,4]triazolo[1,5-a][1,3,5]triazin-5-yl)azetidin-2-yl)(4-(2,4-difluorobenzyl)piperazin-1-yl)methanone] showed a concentration for half-maximal inhibition (IC50) of 3 nM.

In the case of `CCCCN1CCN(C(=O)[C@@H]2CCN2c2nc(N)n3nc(-c4ccco4)nc3n2)CC1` [Example 111, (S)-(1-(7-amino-2-(furan-2-yl)-[1,2,4]triazolo[1,5-a][1,3,5]triazin-5-yl)azetidin-2-yl)(4-butylpiperazin-1-yl)methanone], the IC50 was determined as 8 nM.

Take `Nc1nc(N2CCC[C@H]2C(=O)N2CCN(C(=O)C3CCS(=O)(=O)CC3)CC2)nc2nc(-c3ccco3)nn12` [Example 106]: the IC50 is 7 nM.

Consider `Nc1nc(N2CCC[C@H]2C(=O)N2CCN(C3CCC(C(F)(F)F)CC3)CC2)nc2nc(-c3ccco3)nn12` (stereo partly drawn) [Example 155, (S)-(1-(7-amino-2-(furan-2-yl)-[1,2,4]triazolo[1,5-a][1,3,5]triazin-5-yl)pyrrolidin-2-yl)(4-(4-(trifluoromethyl)cyclohexyl)piperazin-1-yl)methanone], for which the IC50 is 11 nM.

Consider `CC(C)[C@H](Nc1nc(N)n2nc(-c3ccco3)nc2n1)C(=O)N1CCN(CC(F)F)CC1` [Example 355, (S)-2-((7-amino-2-(furan-2-yl)-[1,2,4]triazolo[1,5-a][1,3,5]triazin-5-yl)amino)-1-(4-(2,2-difluoroethyl)piperazin-1-yl)-3-methylbutan-1-one], for which the IC50 came out at 14 nM.

The compound `Nc1nc(N2CCC[C@H]2C(=O)N2CCN(c3ccc(F)cc3)CC2)nc2nc(-c3ccco3)nn12` [Example 121, (S)-(1-(7-amino-2-(furan-2-yl)-[1,2,4]triazolo[1,5-a][1,3,5]triazin-5-yl)pyrrolidin-2-yl)(4-(4-fluorophenyl)piperazin-1-yl)methanone] returned a concentration for half-maximal inhibition (IC50) of 6 nM.

Turning to `COCCN1CCN(C(=O)[C@H]2CCCN2c2nc(N)n3nc(-c4ccco4)nc3n2)CC1` [Example 92, (R)-(1-(7-amino-2-(furan-2-yl)-[1,2,4]triazolo[1,5-a][1,3,5]triazin-5-yl)pyrrolidin-2-yl)(4-(2-methoxyethyl)piperazin-1-yl)methanone], the concentration for half-maximal inhibition (IC50) was 2290 nM.

As for `Nc1nc(N2CCC[C@H]2C(=O)N2CCN(c3ccccc3F)CC2)nc2nc(-c3ccco3)nn12` [Example 120, (S)-(1-(7-amino-2-(furan-2-yl)-[1,2,4]triazolo[1,5-a][1,3,5]triazin-5-yl)pyrrolidin-2-yl)(4-(2-fluorophenyl)piperazin-1-yl)methanone], the IC50 stood at 6 nM.

Regarding `CCC(C)[C@H](Nc1nc(N)n2nc(-c3ccco3)nc2n1)C(=O)N1CCN(CC(F)(F)F)CC1` (stereo partly drawn) [Example 214, (2S)-2-((7-amino-2-(furan-2-yl)-[1,2,4]triazolo[1,5-a][1,3,5]triazin-5-yl)amino)-3-methyl-1-(4-(2,2,2-trifluoroethyl)piperazin-1-yl)pentan-1-one], the IC50 is 5 nM.
